Consider eight molecules from article PMC3494675, “Structure-Function Analysis of the Glioma Targeting NFL-TBS.40-63 Peptide Corresponding to the Tubulin-Binding Site on the Light Neurofilament Subunit” (PLoS ONE, 2012).

The test system of series [1] is T98G human glioblastoma cells. The series can be described thus: Disintegration of the microtubule network in T98G cells (anti-tubulin immunostaining, cell counting). Conditions: 6 hours; for Disintegration of MT (% of cells): T98G cells, 10 µM biotinylated peptide, anti-tubulin immunostaining, minimum 200 cells per experiment, mean ± S.E.M., triplicated; for Effect on MT network of T98G / glioma cells (in words): 10 µM, immunocytochemistry. It is filed as cell-based. An outline of the steps:
(§1)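 Cells on cover slips were cultured 6 h with 10 μM biotinylated peptide, permeabilized, and stained with anti-β-tubulin plus fluorescent streptavidin. By fluorescence/confocal microscopy, ≥200 cells per experiment were scored for peptide uptake and for a normal versus destroyed microtubule network; at least three repeats.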

In a further series the test system is glioma cells. The note with it: shown previously; cited from earlier work. An excerpt: However, contrary to the known CPPs, which are composed mostly of arginines and lysines, the NFL-TBS.40-63 peptide contains only 2 arginine residues and no lysine. […] In addition, the cell penetrating activity appears to correlate with a particular structural pattern.
The nature of series [2]: Secondary structure estimation from CD spectra. In kind it is physicochemical. Conditions: KF/phosphate buffer pH 7.4, 20 µM, Reed's reference set. The procedure:
Circular dichroism (CD) spectra were measured in a J-810 CD spectrometer (Jasco, Japan) in step mode (bandwidth: 2 nm; interval: 0.1 nm; response time: 0.125 s). The spectra were averaged over 3 scans to increase the signal to noise ratio. To optimize the measurements, a 1 cm×0.2 cm mini-quartz cell with four windows (Hellema, Germany) was used in such a way that the spectra from 260 to 200 nm were measured with a 1 cm pathlength and those between 220 and 185 nm with 0.2 cm pathlength. After normalization for pathlength (1 cm), the superimposition of two separated spectra in the 200–220 nm region was verified and the entire spectra reconstituted. The temperature of measurement was controlled with a Peltier-effect temperature controller, and was usually 20°C. The structural stability of peptides was studied by measuring the variation in CD signal at 220 nm (bandwidth: 10 nm; interval: 1 s; response time: 0.5 s; pathlength: 1 cm) when the temperature was increased by 1°C/min from 20 to 85°C. All the CD experiments were performed with 20 µM peptide under 3 buffer conditions: pure water, 2 mM SDS and 10 mM potassium phosphate pH 7.4 with 200 mM KF.
The secondary structures were estimated from the CD spectra with Jasco secondary structure estimation software. The spectra from […] were decomposed to α-helix, β-sheet, β-turn and random coil elements using either Reed's or Yang's reference set as reference spectrum of each element as described, [38]. We usually obtained better fits using Reed's reference.

Series [3] concerns T98G human glioblastoma cells. The series can be described thus: Peptide incorporation into T98G cells (immunocytochemistry, cell counting). It is filed as cell-based. Conditions: 6 hours; for Cell penetration / internalization in T98G cells (in words): 10 µM, immunocytochemistry, compared to original NFL-TBS.40-63; for Peptide incorporation (% of cells): T98G cells, 10 µM biotinylated peptide, Alexa-labeled avidin/streptavidin fluorescence microscopy, minimum 200 cells per experiment, mean ± S.E.M., triplicated. An outline of the steps:
as §1

Square brackets hold non-standard residues; d marks the D form. Peptide text beside a SMILES is read from it. * marks the point of attachment. Biotin = O=C1N[C@H]2[C@H](CS[C@H]2CCCCC(=O)*)N1; pS = N[C@@H](COP(=O)(O)O)C(=O)O

Regarding `CC(C)C[C@H](NC(=O)[C@H](CO)NC(=O)CCCC[C@@H]1SC[C@@H]2NC(=O)N[C@@H]21)C(=O)NCC(=O)N[C@@H](CO)C(=O)N1CCC[C@H]1C(=O)N[C@@H](CO)C(=O)N[C@@H](CO)C(=O)N[C@@H](CO)C(=O)N[C@H](C(=O)N[C@@H](CCCNC(=N)N)C(=O)N[C@@H](C)C(=O)N[C@@H](CO)C(=O)N[C@@H](Cc1ccc(O)cc1)C(=O)N[C@@H](CO)C(=O)N[C@@H](CO)C(=O)N[C@@H](CO)C(=O)N[C@@H](CCCNC(=N)N)C(=O)N[C@@H](CO)C(=O)N[C@@H](Cc1ccc(O)cc1)C(=O)N[C@H](C(=O)N[C@@H](Cc1ccc(O)cc1)C(=O)N[C@@H](CO)C(=O)N[C@@H](CO)C(=O)N[C@@H](CO)C(N)=O)C(C)C)C(C)C` [NFL-SCR, reference compound] (Biotin-SLGSPSSSVRASYSSSRSYVYSSS-NH2), the “Disintegration of MT (% of cells)” value in series [1] is given as 18.18±3.2 % of cells. Besides, the “Cell penetration / internalization (in words)” value in the series on glioma cells is on record as “do not penetrate in cells”.
Take `CC(C)C[C@H](NC(=O)[C@H](CO)NC(=O)[C@H](CO)NC(=O)[C@H](CO)NC(=O)[C@@H](NC(=O)[C@@H]1CCCN1C(=O)[C@H](C)NC(=O)[C@H](CO)NC(=O)[C@H](Cc1ccc(O)cc1)NC(=O)[C@H](CO)NC(=O)[C@H](CO)NC(=O)[C@H](Cc1ccc(O)cc1)NC(=O)CCCC[C@@H]1SC[C@@H]2NC(=O)N[C@@H]21)C(C)C)C(=O)N[C@@H](CO)C(=O)N[C@H](C(=O)N[C@@H](CCCNC(=N)N)C(=O)N[C@@H](CCCNC(=N)N)C(=O)N[C@@H](COP(=O)(O)O)C(=O)N[C@@H](Cc1ccc(O)cc1)C(=O)N[C@@H](CO)C(=O)N[C@@H](CO)C(=O)N[C@@H](CO)C(=O)N[C@@H](CO)C(=O)NCC(=O)N[C@@H](CO)C(N)=O)C(C)C` [Ser17SerP] (Biotin-YSSYSAPVSSSLSVRR[pS]YSSSSGS-NH2): in series [2], the random coil content is listed as 53% and the β-sheet content is reported as 40%. For the same molecule, in series [1], the “Effect on MT network of T98G / glioma cells (in words)” value is on record as “not altered” and the “Disintegration of MT (% of cells)” value is on record as 22.9±1.3 % of cells. Also, in series [3], the “Cell penetration / internalization in T98G cells (in words)” value is recorded as “decreased internalization” and the “Peptide incorporation (% of cells)” value is reported as 32.8±8.7 % of cells.
For `CC(C)C[C@H](NC(=O)[C@H](CO)NC(=O)[C@H](CO)NC(=O)[C@H](CO)NC(=O)[C@@H](NC(=O)[C@@H]1CCCN1C(=O)[C@H](C)NC(=O)[C@H](CO)NC(=O)[C@H](Cc1ccc(O)cc1)NC(=O)[C@H](CO)NC(=O)[C@H](CO)NC(=O)[C@H](Cc1ccc(O)cc1)NC(=O)CCCC[C@@H]1SC[C@@H]2NC(=O)N[C@@H]21)C(C)C)C(=O)N[C@@H](CO)C(=O)N[C@H](C(=O)N[C@@H](CCCNC(=N)N)C(=O)N[C@@H](CCCNC(=N)N)C(=O)N[C@@H](CO)C(=O)N[C@@H](Cc1ccc(O)cc1)C(=O)N[C@@H](COP(=O)(O)O)C(=O)N[C@@H](CO)C(=O)N[C@@H](CO)C(=O)N[C@@H](CO)C(=O)NCC(=O)N[C@@H](CO)C(N)=O)C(C)C` [Ser19SerP] (Biotin-YSSYSAPVSSSLSVRRSY[pS]SSSGS-NH2), in series [2], the random coil content is 60% and the β-sheet content is 34%. In series [1], the “Effect on MT network of T98G / glioma cells (in words)” value is recorded as “not altered” and the “Disintegration of MT (% of cells)” value is given as 19.4±2.1 % of cells. Moreover, in series [3], the “Cell penetration / internalization in T98G cells (in words)” value is recorded as “decreased internalization” and the “Peptide incorporation (% of cells)” value was 27.3±12.1 % of cells.
`CC(C)C[C@H](NC(=O)[C@H](CO)NC(=O)[C@H](CO)NC(=O)[C@H](CO)NC(=O)[C@@H](NC(=O)[C@@H]1CCCN1C(=O)[C@H](C)NC(=O)[C@H](CO)NC(=O)[C@H](C)NC(=O)[C@H](CO)NC(=O)[C@H](CO)NC(=O)[C@H](Cc1ccc(O)cc1)NC(=O)CCCC[C@@H]1SC[C@@H]2NC(=O)N[C@@H]21)C(C)C)C(=O)N[C@@H](CO)C(=O)N[C@H](C(=O)N[C@@H](CCCNC(=N)N)C(=O)N[C@@H](CCCNC(=N)N)C(=O)N[C@@H](CO)C(=O)N[C@@H](Cc1ccc(O)cc1)C(=O)N[C@@H](CO)C(=O)N[C@@H](CO)C(=O)N[C@@H](CO)C(=O)N[C@@H](CO)C(=O)NCC(=O)N[C@@H](CO)C(N)=O)C(C)C` [Tyr4Ala] (Biotin-YSSASAPVSSSLSVRRSYSSSSGS-NH2): the “Disintegration of MT (% of cells)” value in series [1] is given as 24.4±4.6 % of cells. Moreover, the “Peptide incorporation (% of cells)” value in series [3] is given as 5.3±2.4 % of cells.
The corresponding values for `CC(C)C[C@H](NC(=O)[C@H](CO)NC(=O)[C@H](CO)NC(=O)[C@H](CO)NC(=O)[C@@H](NC(=O)[C@@H]1CCCN1C(=O)[C@H](C)NC(=O)[C@H](CO)NC(=O)[C@H](Cc1ccc(O)cc1)NC(=O)[C@H](CO)NC(=O)[C@H](CO)NC(=O)[C@H](Cc1ccc(O)cc1)NC(=O)CCCC[C@@H]1SC[C@@H]2NC(=O)N[C@@H]21)C(C)C)C(=O)N[C@@H](CO)C(=O)N[C@H](C(=O)N[C@@H](CCCNC(=N)N)C(=O)N[C@@H](CCCNC(=N)N)C(=O)N[C@@H](CO)C(=O)N[C@@H](C)C(=O)N[C@@H](CO)C(=O)N[C@@H](CO)C(=O)N[C@@H](CO)C(=O)N[C@@H](CO)C(=O)NCC(=O)N[C@@H](CO)C(N)=O)C(C)C` [Tyr18Ala] (Biotin-YSSYSAPVSSSLSVRRSASSSSGS-NH2) are 16.0±2.8 % of cells and 7.9±0.9 % of cells.
`CC(C)C[C@H](NC(=O)[C@H](CO)NC(=O)[C@H](CO)NC(=O)[C@H](CO)NC(=O)[C@H](C)NC(=O)[C@@H]1CCCN1C(=O)[C@H](C)NC(=O)[C@H](CO)NC(=O)[C@H](Cc1ccc(O)cc1)NC(=O)[C@H](CO)NC(=O)[C@H](CO)NC(=O)[C@H](Cc1ccc(O)cc1)NC(=O)CCCC[C@@H]1SC[C@@H]2NC(=O)N[C@@H]21)C(=O)N[C@@H](CO)C(=O)N[C@H](C(=O)N[C@@H](CCCNC(=N)N)C(=O)N[C@@H](CCCNC(=N)N)C(=O)N[C@@H](CO)C(=O)N[C@@H](Cc1ccc(O)cc1)C(=O)N[C@@H](CO)C(=O)N[C@@H](CO)C(=O)N[C@@H](CO)C(=O)N[C@@H](CO)C(=O)NCC(=O)N[C@@H](CO)C(N)=O)C(C)C` [Val8Ala] (Biotin-YSSYSAPASSSLSVRRSYSSSSGS-NH2): in series [1], the “Disintegration of MT (% of cells)” value is reported as 23.6±2.1 % of cells. Moreover, the “Peptide incorporation (% of cells)” value in series [3] is given as 9.9±3.4 % of cells.
As to `CC(C)C[C@H](NC(=O)[C@H](CO)NC(=O)[C@H](CO)NC(=O)[C@H](CO)NC(=O)[C@@H](NC(=O)[C@@H]1CCCN1C(=O)[C@H](C)NC(=O)[C@H](CO)NC(=O)[C@H](Cc1ccc(O)cc1)NC(=O)[C@H](CO)NC(=O)[C@H](CO)NC(=O)[C@H](Cc1ccc(O)cc1)NC(=O)CCCC[C@@H]1SC[C@@H]2NC(=O)N[C@@H]21)C(C)C)C(=O)N[C@@H](CO)C(=O)N[C@@H](C)C(=O)N[C@@H](CCCNC(=N)N)C(=O)N[C@@H](CCCNC(=N)N)C(=O)N[C@@H](CO)C(=O)N[C@@H](Cc1ccc(O)cc1)C(=O)N[C@@H](CO)C(=O)N[C@@H](CO)C(=O)N[C@@H](CO)C(=O)N[C@@H](CO)C(=O)NCC(=O)N[C@@H](CO)C(N)=O` [Val14Ala] (Biotin-YSSYSAPVSSSLSARRSYSSSSGS-NH2), in series [1], the “Effect on MT network of T98G / glioma cells (in words)” value is “does not affect the MT network” and the “Disintegration of MT (% of cells)” value is 13.8±3.9 % of cells. In series [3], the “Cell penetration / internalization in T98G cells (in words)” value was “fails to enter in cells” and the “Peptide incorporation (% of cells)” value is recorded as 0 % of cells.
As to `CC(C)C[C@H](NC(=O)[C@H](CO)NC(=O)[C@H](CC(C)C)NC(=O)[C@H](CO)NC(=O)[C@H](CO)NC(=O)[C@H](CO)NC(=O)[C@@H](NC(=O)[C@@H]1CCCN1C(=O)[C@H](C)NC(=O)[C@H](CO)NC(=O)[C@H](Cc1ccc(O)cc1)NC(=O)[C@H](CO)NC(=O)[C@H](CO)NC(=O)[C@H](Cc1ccc(O)cc1)NC(=O)CCCC[C@@H]1SC[C@@H]2NC(=O)N[C@@H]21)C(C)C)C(=O)N[C@@H](CCCNC(=N)N)C(=O)N[C@@H](CCCNC(=N)N)C(=O)N[C@@H](CO)C(=O)N[C@@H](Cc1ccc(O)cc1)C(=O)N[C@@H](CO)C(=O)N[C@@H](CO)C(=O)N[C@@H](CO)C(=O)N[C@@H](CO)C(=O)NCC(=O)N[C@@H](CO)C(N)=O` [Val14Leu] (Biotin-YSSYSAPVSSSLSLRRSYSSSSGS-NH2), in series [1], the “Disintegration of MT (% of cells)” value is listed as 39.2±2.4 % of cells. In addition, the “Peptide incorporation (% of cells)” value in series [3] was 44.2±2.2 % of cells.
